Data reported in patent US10112918B2, “15-oxospiramilactone derivatives, preparation method and uses thereof” (Kunming Institute of Botany, The Chinese Academy of Sciences, priority 2013, dated 2018).
Where two headings read alike, the source gives them in different places.

Experiments:
Format in all cases: cell-based
[1] = tested on: SW-480 (human colon cancer cells); assay: MTT inhibition of tumor cell growth, SW-480; settings: Homo sapiens, SW480, 48 h
Protocol: (§1) 1. Inoculating cells: the culture medium DMEM or RMPI1640 containing 10% fetal bovine serum was used to prepare a single cell suspension, and the cell suspension was inoculated to a 96-well plate at 5000-10000 cells per well (100 μl for each well); Adherent cells were inoculated and cultured for 12 h in advance. HL-60 (human promyelocytic leukemia cells), SMMC-7721 (human hepatoma cells), A-549 (Human lung adenocarcinoma cells), MCF-7 (human breast cancer cells), SW-480 (human colon cancer cells) were purchased from the Cell Bank of the Chinese Academy of Sciences, Shanghai.
(§2) 2. The solution of the compound to be tested (40 μM for primary screening; 5 concentrations were set for gradient re-screening for the compounds which achieve about 50% inhibition of tumor cell growth at 40 μM) was added, the final volume of each well was 200 μl, and triplicate wells were set for each test.
(§3) 3. Coloration: After culturing at 37° C. for 48 h, MTT solution (20 μl) was added to each well. After incubation for another 4 h, the culture was stopped. The supernatant in each well was pipetted and discarded, and 200 μl SDS solution (10%) was added to each well. Incubation was performed overnight (at 37° C.), to completely dissolve the crystal.
(§4) 4. Colorimetric assay: ELISA Reader (Bio-Rad 680) was used to obtain the light absorption for each well at a wavelength of 595 nm, the results were recorded. A cell growth curve was plotted with the concentration as abscissa and the cell survival percentage as ordinate. The two-point method (Reed and Muench method) was used to calculate the IC50 of the compound.

[2] = tested on: HL-60 (human promyelocytic leukemia cells); assay: MTT inhibition of tumor cell growth, HL-60; settings: Homo sapiens, HL-60, 48 h
Protocol: as §1, §2, §3, §4

[3] = tested on: MCF-7 (human breast cancer cells); assay: MTT inhibition of tumor cell growth, MCF-7; settings: Homo sapiens, MCF7, 48 h
Protocol: as §1, §2, §3, §4

[4] = tested on: SMMC-7721 (human hepatoma cells); assay: MTT inhibition of tumor cell growth, SMMC-7721; settings: Homo sapiens, SMMC-7721, 48 h
Protocol: as §1, §2, §3, §4

[5] = tested on: Wnt signaling pathway (Top-Flash reporter gene); assay: Top-Flash Wnt reporter gene assay in HEK293T cells with Wnt3a conditioned medium; settings: Homo sapiens, HEK-293T, 6 h, HEK293T, Wnt3a conditioned medium, 6 h
Protocol: HEK293T cells were cultured in DMEM containing 10% fetal bovine serum (Invitrogen) at 37° C., 5% CO2. The cells were passaged every other day. The density was retained at 70˜80% during passage. L cell line (CRL-2647, purchased from the gene bank of ATCC, the US) and the control cell line (CRL-2648, purchased from ATCC, US), which stably secreted mouse Wnt3a protein, were cultured in DMEM containing 50 ug/ml G418 and 10% fetal bovine serum, at 37° C., 5% CO2. When the cells grew to a density of about 70%, the medium was replaced with DMEM containing 10% fetal bovine serum. After continuous culture for 4 days, the culture was collected and centrifuged, and the supernatant was kept so that the Wnt conditioned medium was obtained. After titration assay, the conditioned medium was quick-frozen in liquid nitrogen, and placed at −80° C. for long-term storage, so that the titer was kept unchanged.
The cells were seeded to a 48-well plate at a density of […] cells per well, and transfected 20 h later. The reagents for plasmid transfection were calculated based on the amount in each well of the 48-well plate as following: the total amount of plasmid was 125 ng/well; the plasmid was first added to a serum-free medium (25 μL/well) and mixed well; PLUS reagent (Invitrogen) was then added in an amount of 0.5 μL/well and mixed well, then stood for 15 min; Lipofectamine (Invitrogen) liposome was added in an amount of 0.5 μL/well to serum-free DMEM medium (25 μL/well), and then mixed with the solution containing the plasmid and the PLUS, and stood for 15 min. The cells were cultured in serum-free DMEM medium (100 μL/well), and the final mixture of plasmid, PLUS and Lipofectamine were added to the cells. After incubation for 3 h, the transfection was stopped by the medium containing 10% fetal bovine serum (200 μL/well).
The HEK293T cells used for activity assay of the report gene were transfected by the method as shown in 2). Activity assay of Wnt reporter gene: the amount of plasmid for transfection was 5 ng/well for TOP-flash and 5 ng/well for GFP plasmid as internal standard, with lacZ added to reach a total amount of 125 ng/well. […] After treating for 6 h, Boehringer Mannheim Luci-ferase Assay Kit was used to lyse cells (200 μL/well). 50 μL from each well was pipetted into a 96-well plate. The indensity of GFP protein in the cell lysate was measured by fluorimeter FL600 (BIO-TEK Inc. Winooski, Vt.), and taken as internal standard for cell transfection efficiency. 10 μL substrate of luciferase was then added to each well, and the activity of luciferase was measured by Micro Lumate Plus (Perkin Elmer Inc. Wellesley, Mass.) luminometer. Finally, GFP indensity was used as internal standard to calibrate the activity of luciferase, i.e. the activity of Wnt reporter gene.
Calculation of IC50 (taking the calculation of IC50 of the Wnt signaling pathway for example): background (the activity as measured in the groups treated with a conditioned medium containing DMSO only) was subtracted from the reporter gene activity as measured in the groups treated by Wnt3a conditioned medium with or without the compound to be tested at different concentrations; and the obtained value was defined as the activity of the reporter gene induced by Wnt or the residual activity of the reporter gene after adding the compound to be tested. The residual activity was normalized by the activity induced by Wnt to get the relative residual activity. Then combine with the concentrations of the compound to be tested to plot a linear graph, and a dose-effect curve was fitted based on 4-parameter logistic fit. IC50 of the Wnt signaling pathway is determined as the concentration at which the relative residual activity is 0.5.

[6] = tested on: A-549 (Human lung adenocarcinoma cells); assay: MTT inhibition of tumor cell growth, A-549; settings: Homo sapiens, A549, 48 h
Protocol: as §1, §2, §3, §4

[7] = Table 1, 7-hydroxy derivatives of S-3, read-out: IC50 SW-480
[8] = Table 1, 7-hydroxy derivatives of S-3
[9] = Table 7 (second), derivatives modified on 7-hydroxyl of S-3, read-out: IC50 (μM), inhibitory activity on the Wnt signaling pathway
[10] = Table 2, derivatives having potential Michael reaction acceptor, read-out: IC50 SW-480
[11] = Table 6, 7-carbonyl derivatives, read-out: IC50 SW-480, 7-carbonyl derivatives
[12] = Table 2, derivatives having potential Michael reaction acceptor
[13] = Table 8, read-out: IC50 (μM), inhibitory activity on the Wnt signaling pathway
[14] = Table 5, derivatives having double Michael reaction acceptor, read-out: IC50 SW-480
[15] = Table 5, derivatives having double Michael reaction acceptor
[16] = Table 9, read-out: IC50(μM), inhibitory activity on the Wnt signaling pathway
[17] = Table 3, single Michael reaction acceptor, modified lactonic ring, read-out: IC50 SW-480
[18] = Table 3, single Michael reaction acceptor, modified lactonic ring

IC50 [5, 9] [µM]	IC50 [1, 10] [µM]	IC50 [2, 12] [µM]	IC50 [3, 12] [µM]	IC50 [4, 12] [µM]	IC50 [6, 12] [µM]	IC50 [5, 16] [µM]	SMILES	other results
12.4 ± 1							C=C1C(=O)C23CC[C@H]1CC2[C@@]12CCC[C@@](C)(COC1=O)C2C[C@H]3OS(=O)(=O)c1ccccc1 (some centres unmarked) [Compound 1s]	IC50 [1, 7]: 2.89 µM; IC50 [2, 8]: 3.53 µM; IC50 [3, 8]: 4.18 µM; IC50 [4, 8]: 3.83 µM; IC50 [6, 8]: 2.69 µM
14.4 ± 2.28							C=C1C(=O)[C@]23CC[C@H]1CC2[C@@]12CCC[C@@](C)(COC1=O)C2C[C@H]3OS(=O)(=O)c1ccc(Cl)cc1 (some centres unmarked) [Compound 1t]	IC50 [1, 7]: 1.91 µM; IC50 [2, 8]: 3.36 µM; IC50 [3, 8]: 3.19 µM; IC50 [4, 8]: 3.64 µM; IC50 [6, 8]: 2.94 µM
> 60							C=C1C(=O)[C@]23CC[C@H]1CC2[C@@]12CCC[C@@](C)(COC1=O)C2C[C@H]3S(=O)(=O)c1ccccc1[N+](=O)[O-] (some centres unmarked) [Compound 1u]	IC50 [1, 7]: 18.4 µM; IC50 [2, 8]: 6.63 µM; IC50 [3, 8]: 9.05 µM; IC50 [4, 8]: 23.4 µM; IC50 [6, 8]: 6.69 µM
> 60							C=C1C(=O)[C@]23CC[C@H]1CC2[C@@]12CCC[C@@](C)(COC1=O)C2C[C@@H]3S(=O)(=O)c1ccccc1[N+](=O)[O-] (some centres unmarked) [Compound 1v]	IC50 [1, 7]: 14.7 µM; IC50 [2, 8]: 9.64 µM; IC50 [3, 8]: 11.1 µM; IC50 [4, 8]: 26.9 µM; IC50 [6, 8]: 16.6 µM
12.1 ± 1.88	3.74	4.56	4.61	4.72	3.16		C=C1C(=O)[C@]23CC[C@H]1CC2[C@@]12CCC[C@@](C)(COC1=O)C2CC3=O (some centres unmarked) [Compound 7]	IC50 [1, 11]: 2.63 µM; IC50 [5, 13]: 12.1 µM
						4.09 ± 0.07	C=C1C(=O)[C@@]23CC[C@@H](CC2[C@@]24CCC[C@@](C)(COC2=O)C14)C(=C)C3=O (some centres unmarked) [Compound 8]	IC50 [1, 14]: 0.66 µM; IC50 ([1]; Table 6, double Michael reaction acceptor derivatives, read-out: IC50 SW-480, derivatives having double Michael reaction acceptor): 0.45 µM; IC50 [2, 15]: 2.02 µM; IC50 [3, 15]: 0.96 µM; IC50 [4, 15]: 0.72 µM; IC50 [6, 15]: 0.59 µM
	7.77	4.43	3.55	3.53	2.8	8.56 ± 1.15	C=C1C(=O)[C@]23CC[C@H]1CC2[C@@]12CCC[C@@](C)(COC1=O)C2[C@H](CN1CCOCC1)C3=O (some centres unmarked) [Compound 9]	
	1.03	3.41	1.18	0.71	0.83	9.54 ± 1.34	C=C1C(=O)[C@]23CC[C@H]1CC2[C@@]12CCC[C@@](C)(COC1=O)C2C(CN(C)C)C3=O (some centres unmarked) [Compound 10]	
	2.8	3.85	3.94	2.48	2.44	6.89 ± 0.27	C=C1C(=O)[C@]23CC[C@H]1CC2[C@@]12CCC[C@@](C)(COC1=O)C2[C@H](CO)C3=O (some centres unmarked) [Compound 11]	
	3.71	4.69	4.83	2.41	3.14	19.8 ± 1.34	C=C1C(=O)[C@]23CC[C@H]1CC2[C@@]12CCC[C@@](C)(COC1=O)C2[C@H](SC)C3=O (some centres unmarked) [Compound 12]	
	1.21	3.86	1.51	0.83	0.73	16.5 ± 1.16	C=C1C(=O)[C@]23CC[C@H]1CC2[C@@]12CCC[C@@](C)(COC1=O)C2[C@H](Br)C3=O (some centres unmarked) [Compound 13]	
	2.38	3.82	2.63	1.96	3.03	20.1 ± 1.32	C=C1C(=O)[C@]23CC[C@H]1CC2[C@@]12CCC[C@@](C)(COC1=O)C2[C@H](Cl)C3=O (some centres unmarked) [Compound 14]	
						11.1 ± 0.63	C=C1C(=O)[C@]23CC[C@H]1CC2[C@@]12CCC[C@@](C)(COC1=O)C2=CC3=O (some centres unmarked) [Compound 15]	IC50 [1, 14]: 1.21 µM; IC50 [2, 15]: 0.8 µM; IC50 [3, 15]: 1.44 µM; IC50 [4, 15]: 0.8 µM; IC50 [6, 15]: 0.91 µM
	11.4	5.56	3.09	12	4.77	8.27 ± 1.24	C=C1C(=O)[C@@]23CC[C@@H](CC2[C@@]24CCC[C@@](C)(COC2=O)C14)C(=C)[C@@H]3O (some centres unmarked) [Compound 16]	
							C=C1C(=O)[C@]23CC[C@H]1CC2[C@@]12CCC[C@@](C)(CO[C@H]1OC)C2C[C@H]3O (some centres unmarked) [Compound 21]	IC50 [1, 17]: 4.19 µM; IC50 ([1]; Table 6, 7-hydroxyl derivatives and controls, read-out: IC50 SW-480, 7-hydroxyl derivatives): 2.9 µM; IC50 [2, 18]: 4.2 µM; IC50 [3, 18]: 5.04 µM; IC50 [4, 18]: 1.87 µM; IC50 [5, 13]: 27.4 ± 0.98 µM; IC50 [6, 18]: 3.17 µM
							C=C1C(=O)[C@]23CC[C@H]1CC2[C@@]12CCC[C@@](C)(CO[C@H]1OC)C2CC3=O (some centres unmarked) [Compound 22]	IC50 [1, 17]: 2.2 µM; IC50 [1, 11]: 2.56 µM; IC50 [2, 18]: 1.46 µM; IC50 [3, 18]: 1.57 µM; IC50 [4, 18]: 0.51 µM; IC50 [5, 13]: 17.6 ± 1.9 µM; IC50 [6, 18]: 0.67 µM
